Inconclusive results are not listed. Calls of active or inactive are those of the source.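 How the source made its calls: active means remaining helicase activity under 10% at 30 micromolar; inconclusive means remaining helicase activity between 10% and 50%; inactive means remaining helicase activity over 50%.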
System: Hepatitis C virus NS3 helicase
Experiment: inhibition of NS3 duplex DNA unwinding by HCV helicase – biochemical, fluorescence, FAM-quenched DNA substrate, full-length NS3, primary screen (AID 1347039)
Details: recombinant NS3 DNA unwinding, FAM fluorescence rate; at 30 µM; active compounds read low

SMILES | remaining helicase activity
COc1ccc(C(=O)n2cc(C=C3C(=O)NC(=S)NC3=O)c3cc(Br)ccc32)cc1 | 61.9% (inactive)
O=C1NC(=S)NC(=O)C1=Cc1cn(C(=O)c2ccccc2)c2ccccc12 | 56.3% (inactive)
O=C1NC(=S)NC(=O)C1=Cc1cn(C(=O)c2ccccc2)c2ccc(Cl)cc12 | 73.2% (inactive)
O=C1NC(=S)NC(=O)C1=Cc1cn(C(=O)c2cccc3ccccc23)c2ccccc12 | 22.3% (inactive)
O=C1NC(=S)NC(=O)C1=Cc1cn(C(=O)c2ccc(F)cc2)c2ccccc12 | 51.1% (inactive)
O=C1NC(=S)NC(=O)C1=Cc1cn(C(=O)c2ccc3ccccc3c2)c2ccccc12 | 0%
COc1ccc(C(=O)n2cc(C=C3C(=O)NC(=S)NC3=O)c3cc(Cl)ccc32)cc1 | 53.2% (inactive)
O=C1NC(=S)NC(=O)C1=Cc1cn(C(=O)c2ccccc2Br)c2ccc(Cl)cc12 | 83.8% (inactive)
COc1ccc2c(c1)c(C=C1C(=O)NC(=S)NC1=O)cn2C(=O)c1ccccc1 | 79.2% (inactive)
O=C1NC(=S)NC(=O)C1=Cc1cn(C(=O)c2cccc3ccccc23)c2ccc(Cl)cc12 | 33.4% (inactive)
O=C1NC(=S)NC(=O)C1=Cc1cn(C(=O)c2ccccc2Br)c2ccc(Br)cc12 | 53.2% (inactive)
COc1ccc(C(=O)n2cc(C=C3C(=O)NC(=S)NC3=O)c3cc(OC)ccc32)cc1 | 55.2% (inactive)
COc1ccc2c(c1)c(C=C1C(=O)NC(=S)NC1=O)cn2C(=O)c1ccc2ccccc2c1 | 6.3%
COc1ccc2c(c1)c(C=C1C(=O)NC(=S)NC1=O)cn2C(=O)c1cccc2ccccc12 | 0%
COc1ccc(C(=O)n2cc(C=C3C(=O)NC(=S)NC3=O)c3ccccc32)cc1 | 54.6% (inactive)
O=C1NC(=S)NC(=O)C1=Cc1cn(C(=O)c2ccc3ccccc3c2)c2ccc(Cl)cc12 | 73.3% (inactive)
O=C1NC(=S)NC(=O)C1=Cc1cn(C(=O)c2ccccc2Br)c2ccccc12 | 63.5% (inactive)

Reference: PubChem BioAssay AID1347039 (Raney Lab, University of Arkansas for Medical Sciences …, 2019)
